Consider 14 molecules from patent publication US9604974B2, “Compounds as modulator of JAK-STAT pathway, methods and applications thereof” (UNIVERSITY OF MYSORE, priority 2015, dated 2017).

In one experiment the test system is phospho-STAT3 (Y705). Put plainly: Western blot of constitutive phospho-STAT3 (Y705) in HepG2. The experiment is classed as cell-based, human. The conditions noted are these: HepG2, 6 hours. The method, then: FIG. 2 depicts the suppression of phospho-STAT3 by compound 1 (CIMO) in a dose dependent manner [A]. HepG2 cells (5×10^5/mL) are treated with the indicated concentrations of CIMO for 6 hours, after which whole-cell extracts are prepared and resolved on SDS-PAGE gel, electrotransferred onto nitrocellulose membrane, and probed for phospho-STAT3. The same blot is stripped and reprobed with STAT3 antibody to verify equal protein loading. […] HepG2 cells (5×10^5/mL) are treated with the indicated concentrations of AG490 for about 6 hours, after which Western Blotting is done as described for [A]. [C] depicts the suppression of phospho-STAT3 levels by Compound 1 (CIMO) in a time-dependent manner. HepG2 cells (5×10^5/mL) are treated with 10 μMol/L CIMO for the indicated times, after which Western blotting is done as described for [A]. [D] depicts that compound 1 (CIMO) has no effect on phospho-STAT3 (Ser-727) and STAT3 protein expression. HepG2 cells (5×10^5/mL) are treated with 10 μMol/L CIMO for the indicated times, after which Western Blotting is done as described for [A] and membrane is probed using antibodies against phospho-STAT3 (Ser-727) and STAT3. […] HepG2 cells (1×10^5/mL) are incubated with or without 10 μMol/L CIMO for about 6 hours and then analyzed for the intracellular distribution of STAT3 by immunocytochemistry. The same slides are counterstained for nuclei with Hoechst (50 ng/mL) for about 5 minutes and analyzed under an fluorescencemicroscope. […] HepG2 cells (5×10^5/mL) are treated with 10 μMol/L CIMO, after which whole-cell extracts are prepared, resolved in SDS-PAGE, electrotransferred onto nitrocellulose membrane, and probed with phospho-Src, phospho-JAK1 and phospho-JAK2 antibodies. The same blots are stripped and reprobed with Src, JAK1 and JAK2 antibodies to verify equal protein loading. [G] depicts the suppression of STAT3 DNA binding ability by Compound 1 (CIMO) in HepG2 cells. HepG2 cells are treated with 10 μMol/L CIMO for the indicated time, nuclear extracts are prepared, and 5 μg of the nuclear extract protein is used for ELISA-based DNA-binding assay.
CIMO is tested towards the inhibition of constitutive activation of STAT3 in HepG2 cells by Western Blotting via antibodies recognising phospho-STAT3 (Y705). For detection of phospho-proteins, CIMO treated whole-cell extracts are lysed in lysis buffer [20 mM Tris (pH 7.4), 250 mM NaCl, 2 mM Ethylenediaminetetraacetic acid (pH 8.0), 0.1% Triton-X-100, 0.01 mg/ml aprotinin, 0.005 mg/ml leupeptin, 0.4 mM phenylmethanesulfonylfluoride, and 4 mM NaVO4). Lysates are then spun at 14,000 rpm for about 10 minutes to remove insoluble material and resolved on SDS gel. After electrophoresis, the proteins are electrotransferred to a nitrocellulose membrane, blocked with 5% non-fat milk, and probed with various antibodies (1:1000) overnight at about 4° C. The blot is washed, exposed to HRP-conjugated secondary antibodies for about 1 hour, and finally examined by chemiluminescence (ECL; GE Healthcare, Little Chalfont, Buckinghamshire, UK).
Turning to `N#C/C(=C/c1ccc(O)c(O)c1)C(=O)NCc1ccccc1` [AG490, reference compound], the “concentration of maximum inhibition of phospho-STAT3” value was found to be 200 µM.

The same experiment, now with this note: HepG2, Western blot, dose and time course.
On to `N#C/C(=C/c1ccc(O)c(O)c1)C(=O)NCc1ccccc1` [AG490, reference compound], for which the “levels of phospho-STAT3 (Y705)” value is “decreases the phosphorylation of STAT3 in a dose-dependent manner”.

Still in this experiment, the particulars now being: HepG2, with 10 μMol/L CIMO, about 4 hours.
As to sodium pervanadate [reference compound], the “effect on CIMO-induced inhibition of STAT3 activation” value is on record as “prevents CIMO-induced inhibition of STAT3 activation”.

In the next experiment the test system is HepG2 cells. Put plainly: MTT anti-proliferative assay, HepG2. The experiment is classed as cell-based. The conditions noted are these: Homo sapiens; HepG2 cells after 72 hours, MTT. The method, then: The anti-proliferative activity of Formula I compounds are studied on HepG2 cells using MTT assay. Briefly, the cells (2.5×10^4/ml) are incubated in triplicate in a 96-well plate in the presence or absence of different concentrations of compounds in a final volume of 0.2 ml up to 72 hours at 37° C. Thereafter, 20 μl MTT solution (5 mg/ml in PBS) is added to each well. After 2 hours of incubation at 37° C., 0.1 ml lysis buffer (20% SDS, 50% dimethyl-formamide) is added; incubation is continued overnight at 37° C.; and the optical density (OD) at 570 nm is measured by Tecan plate reader.
Molecule `COc1ccc(C2CNC(c3c(Cl)cccc3Cl)OC23CCCCC3)cc1` (stereo not drawn) [Compound 10, 2-(2,6-dichlorophenyl)-5-(4-methoxy-phenyl)-1-oxa-3-aza spiro(5,5) undecane] came in with an IC50 of 42.4 µM.
`CCCCc1nc(Cl)c(C2NCC(c3ccc(OC)cc3)C3(CCCCC3)O2)[nH]1` (stereo not drawn) [Compound 2, 2-(2-butyl-5-chloro-3H-imidazol-4-yl)-5-(4-methoxy-phenyl)-1-oxa-3-aza spiro(5,5) undecane]: the IC50 was 38.7 µM.
`CCCCc1nc(Cl)c(C2NCC(c3ccc(OC)cc3)C3(CCCCC3)O2)n1Cc1ccc(-c2ccccc2C#N)cc1` (stereo not drawn) [Compound 3, 2-(2-butyl-5-chloro-3-(4-(2-cyanophenyl)1-benzyl)-imidazol-4-yl)-5-(4-methoxy-phenyl)-1-oxa-3-aza spiro(5,5) undecane]: the IC50 was determined as 14.3 µM.
For the molecule `COc1ccc(C2CNC(c3ccc4c(c3)CCO4)OC23CCCCC3)cc1` (stereo not drawn) [Compound 11, 2-(2,3-Dihydro-benzofuran-5-yl)-5-(4-methoxy-phenyl)-1-oxa-3-aza-spiro[5.5]undecane], the IC50 was > 50 µM.
Turning to `COc1ccc(C2CN(Cc3ccc(-c4ccccc4C#N)cc3)C(c3c(Cl)cccc3Cl)OC23CCCCC3)cc1` (stereo not drawn) [Compound 12], the IC50 is > 50 µM.
For `COc1ccc(C2CNC(c3c(C)[nH]c4ccccc34)OC23CCCCC3)cc1` (stereo not drawn) [Compound 9, 2-(2-methylindyl)-5-(4-methoxy-phenyl)-1-oxa-3-aza spiro(5,5) undecane], the IC50 was > 50 µM.
`CCCCc1nc(Cl)c(C2NCC(c3ccc(OC)cc3)C3(CCCCC3)O2)n1Cc1ccc(Oc2ccccc2)cc1` (stereo not drawn) [Compound 7] gave an IC50 of 15.8 µM.
Consider `COc1ccc(C2CNC(c3ccc(Br)cc3)OC23CCCCC3)cc1` (stereo not drawn) [Compound 4, 2-(4-Bromophenyl)-5-(4-methoxy-phenyl)-1-oxa-3-aza spiro(5,5) undecane], for which the IC50 turned out to be 37.1 µM.
`COc1ccc(C2CNC(c3coc4ccccc4c3=O)OC23CCCCC3)cc1` (stereo not drawn) [Compound 8, 3-[5-(4-Methoxy-phenyl)-1-oxa-3-aza-spiro[5.5]undec-2-yl]-chromen-4-one] registered an IC50 of 28.8 µM.
The molecule `COc1ccc(C2CNC(c3c[nH]c4ccccc34)OC23CCCCC3)cc1` (stereo not drawn) [Compound 6, 2-(indyl)-5-(4-methoxy-phenyl)-1-oxa-3-aza spiro(5,5) undecane] yielded an IC50 of 28.5 µM.
On the same count and under the same terms, for `COc1ccc(C2CNC(c3ccc(N(C)C)cc3)OC23CCCCC3)cc1` (stereo not drawn) [Compound 13, 2-(4-dimethylaminophenyl)-5-(4-methoxy-phenyl)-1-oxa-3-aza spiro(5,5) undecane] the value was > 50 µM; for `COc1ccc(C2CNC(c3c(-c4ccccc4)[nH]c4ccccc34)OC23CCCCC3)cc1` (stereo not drawn) [Compound 5, 2-(2-phenylindyl)-5-(4-methoxy-phenyl)-1-oxa-3-aza spiro(5,5) undecane], 9.8 µM.
